Read-outs that look alike come from different tables or passages of the source.
Tests used:
[1] = system: U-87 human glioblastoma cells; experiment: Long term study: EO9 and radiation therapy two non-consecutive days a week for 3 weeks, U-87 tumor xenograft growth; type: in vivo, athymic NCR NUM mice; conditions: for % Δ: average rate of increase of tumor volume / T2x: average doubling time of tumor volume: 2 days a week for 3 weeks
Procedure: The effective photon energy was 90 keV.
A protocol was investigated where EO9 and radiation therapy were administered over a longer period of time. In this study, EO9 or radiation therapy was delivered alone or in combination on two non-consecutive days a week for 3 weeks. Six groups received vehicle alone (DMSO), vehicle 30 minutes before radiation therapy (2 days×7.5 Gy), vehicle 30 minutes after radiation therapy (2 days×7.5 Gy), E09 only (2 days×3 mg/kg), EO9 […], and EO9 30 minutes after radiation therapy.

[2] = system: U-87 human glioblastoma cells
Procedure: U-87 human glioblastoma cells (American Type Culture Collection) were maintained in alpha MEM medium (Sigma) with 10% fetal bovine serum (Atlanta Biologicals). A U-87 cell suspension was injected subcutaneously into the right hind limb (5×10^5 cells in 100 μl PBS) of athymic NCR NUM mice (Taconic Farms) and allowed to grow to a hypoxic volume of ˜550 mm^3 before treatment. Tumors were treated with EO9 and a fractionated radiation therapy schedule to test the hypothesis that EO9 would sensitize tumor cells to radiation therapy. EO9 or vehicle was administered 30 minutes after each radiation therapy fraction on day 1, 2, and 3. The study used 4 treatment groups: vehicle (DMSO), radiation therapy alone (3 days×7.5 Gy), EO9 (3 days×2 mg/kg), and EO9 +radiation therapy (3 days×7.5 Gy×2 mg/kg). EO9 was administered locally by intra-tumoral injection to achieve optimal delivery.
Irradiations were performed on anesthetized mice using an X-ray machine (Pantak) operating at 250 kV, 10 mA, with a 2-mm aluminum filtration. The effective photon energy was 90 keV. Mice were anesthetized with a combination of Ketamine and Acepromazine at a concentration of 75 mg/kg and 0.30 mg/kg respectively. Each mouse was confined in a lead casing with its tumor-bearing leg extended through an opening on the side to allow the tumor to be irradiated locally.
Mixed-effects regression was used to model the base-10 logarithm of tumor volume as a function of time and treatment (tumor growth analyses). The log-transformed outcome was used because tumors of this size grow approximately exponentially, and therefore the logarithm of the tumor volume is approximately linear over time. This approach appropriately handles unbalanced data, such as a different number of measurements for different animals, and takes into account the correlation of each animal's measurements over time. These analyses were carried out with SAS 8.2 (SAS Institute Inc., Cary, N.C., 1999-2001).

[3] = EO9 3 mg/kg 30 minutes after radiation therapy (7.5 Gy)
[4] = EO9 3 mg/kg before radiation therapy (7.5 Gy)
[5] = EO9 only, 3 mg/kg intra-tumoral
[6] = EO9 + radiation therapy (3 days x 7.5 Gy x 2 mg/kg), EO9 30 minutes after each fraction

SMILES: Cn1c(/C=C/CO)c(CO)c2c1C(=O)C=C(N1CC1)C2=O [EO9, 3-hydroxymethyl-5-aziridinyl-1-methyl-2-(1 H-indole-4,7-dione)-prop-β-en-α-ol]
- % Δ: average rate of increase of tumor volume [1, 3]: 8 % daily increase
- T2x: average doubling time of tumor volume [1, 3]: 9.1 days
- % Δ: average rate of increase of tumor volume [1, 4]: 4 % daily increase
- T2x: average doubling time of tumor volume [1, 4]: 17.3 days
- effectiveness of dosing schedule ([1]; EO9 administered before radiation therapy): most effective dosing schedule
- % Δ: average rate of increase of tumor volume [1, 5]: 12 % daily increase
- T2x: average doubling time of tumor volume [1, 5]: 6.1 days
- rate of tumor volume growth compared with the other groups ([1]; groups receiving EO9 before or after radiation therapy combined into a single group (FIG. 8)): slowest rate of tumor volume growth
- nature of the combination effect of EO9 and radiation therapy ([2]; EO9 + radiation therapy): additive
- Estimated Time (Days) for tumors to reach 2000 mm^3 [2, 6]: 20.8 days
- T2x: average doubling time of tumor volume [2, 6]: 11.7 days
- % Δ (95% CI): average rate of increase of tumor volume ([2]; EO9 + radiation therapy (3 days x 7.5 Gy x 2 mg/kg), EO9 intra-tumoral 30 minutes after each fraction): 6 (4, 8) % daily increase
- increase of tumor doubling time vs. control ([2]; EO9 alone, 3 days x 2 mg/kg): 1.4 days
- Estimated Time (Days) for tumors to reach 2000 mm^3 ([2]; EO9 alone, 3 days x 2 mg/kg intra-tumoral): 8.6 days
- % Δ (95% CI): average rate of increase of tumor volume ([2]; EO9 alone, 3 days x 2 mg/kg intra-tumoral, tumors ~550 mm^3): 16 (14, 19) % daily increase
- rate of tumor growth compared with the other groups ([2]; EO9 and radiation therapy): slowest rate of tumor growth
- increase of mean tumor doubling time vs. control ([2]; combination of EO9 and radiation therapy): 8.5 days

— patent US20060223876A1, “Indoloquinone Tumor Radiation Sensitization” (priority 2005, published 2006)
